Experimental data published in US11028077B2, “Crystalline pharmaceutical and methods of preparation and use thereof” (NOVARTIS PHARMACEUTICALS CORPORATION, priority 2008, dated 2021).
Like-named read-outs stand apart in the source and are kept apart here.

Key:
[1] = tested on: human mononuclear cells (PBMC) stimulated with staphylococcal enterotoxin B (SEB); experiment: cells; type: cell-based
[2] = Rat ocular pharmacokinetics of [14C]-compound (ocular tissue levels); type: in vivo; conditions: for Concentration, Aqueous humor: ocular dosing in rats
[3] = Single dose ocular and IV ADME study with [14C]-compound in rats, quantitative whole body autoradiography; type: in vivo, rat; conditions: for excretion in feces, % of the administered radioactivity: 0 to 168 hours postdose
[4] = 0.5 hour postdose, topical ocular 1 mg/eye
[5] = 0.5 hour postdose, topical ocular 1 mg/eye, above upper limit of quantification
[6] = 8 hours postdose, topical ocular 1 mg/eye
[7] = 24 hours postdose, topical ocular 1 mg/eye
[8] = at 2 hours postdose vs 0.5 hour

Compound `O=C(NC(Cc1cc(=O)[nH]c2ccccc12)C(=O)O)c1ccc(Cl)cc1` (stereo not drawn) [Rebamipide, reference compound] has an EC50 ([1]; read-out: EC50 Cytokine Release GM-CSF) greater than 1000 µM, an EC50 ([1]; read-out: EC50 Cytokine Release IFNγ) greater than 1000 µM and an EC50 ([1]; read-out: EC50 Cytokine Release IL-1α) greater than 1000 µM. The EC50 ([1]; read-out: EC50 Cytokine Release IL-1β) was greater than 1000 µM, the EC50 ([1]; read-out: EC50 Cytokine Release IL-2) was greater than 1000 µM and the EC50 ([1]; read-out: EC50 Cytokine Release IL-3) was greater than 1000 µM. It also gave an EC50 ([1]; read-out: EC50 Cytokine Release IL-4) greater than 1000 µM, an EC50 ([1]; read-out: EC50 Cytokine Release IL-5) greater than 1000 µM and an EC50 ([1]; read-out: EC50 Cytokine Release IL-6) greater than 1000 µM. The EC50 ([1]; read-out: EC50 Cytokine Release IL-10) was greater than 1000 µM, the EC50 ([1]; read-out: EC50 Cytokine Release IL-12p40) was greater than 1000 µM and the EC50 ([1]; read-out: EC50 Cytokine Release IL-13) was greater than 1000 µM. The EC50 ([1]; read-out: EC50 Cytokine Release IP-10) was greater than 1000 µM, the EC50 ([1]; read-out: EC50 Cytokine Release MCP-1) was greater than 1000 µM and the EC50 ([1]; read-out: EC50 Cytokine Release MIP-1α) was greater than 1000 µM. It also gave an EC50 ([1]; read-out: EC50 Cytokine Release TNF-α) greater than 1000 µM.

With `CS(=O)(=O)c1cccc(C[C@H](NC(=O)c2c(Cl)cc3c(c2Cl)CCN(C(=O)c2ccc4ccoc4c2)C3)C(=O)O)c1` [[^14C]-compound of Formula I] the “Concentration, Conjunctiva (bulbar)” value ([2]; 0.5 hour after administration) was 31500 ng Equivalents [^14C]-compound of Formula I/g tissue, the “Concentration, Conjunctiva (palpebral)” value ([2]; 0.5 hour after administration) was 26300 ng Equivalents [^14C]-compound of Formula I/g tissue and the “Concentration, Cornea” value ([2]; 0.5 hour after administration) was 17150 ng Equivalents [^14C]-compound of Formula I/g tissue. For the same compound, the “Concentration, Iris-ciliary body” value ([2]; 0.5 hour after administration) was 17550 ng Equivalents [^14C]-compound of Formula I/g tissue, the “Concentration, Lens” value ([2]; 0.5 hour after administration) was 38.8 ng Equivalents [^14C]-compound of Formula I/g tissue and the “Concentration, Optic Nerve” value ([2]; 0.5 hour after administration) was 796 ng Equivalents [^14C]-compound of Formula I/g tissue. The “Concentration, Retina and Choroid (with RPE)” value ([2]; 0.5 hour after administration) was 510 ng Equivalents [^14C]-compound of Formula I/g tissue, the “Concentration, Sclera” value ([2]; 0.5 hour after administration) was 2750 ng Equivalents [^14C]-compound of Formula I/g tissue and the “Concentration, Vitreous Humor” value ([2]; 0.5 hour after administration) was 1330 ng Equivalents [^14C]-compound of Formula I/g tissue. The “Concentration, Aqueous humor” value ([2]; 0.5 hour after administration) was 1770 ng Equivalents [^14C]-compound of Formula I/g tissue, the “Concentration, Conjunctiva (bulbar)” value ([2]; 4.0 hours after administration) was 4480 ng Equivalents [^14C]-compound of Formula I/g tissue and the “Concentration, Conjunctiva (palpebral)” value ([2]; 4.0 hours after administration) was 21830 ng Equivalents [^14C]-compound of Formula I/g tissue. For the same compound, the “Concentration, Cornea” value ([2]; 4.0 hours after administration) was 1346 ng Equivalents [^14C]-compound of Formula I/g tissue, the “Concentration, Iris-ciliary body” value ([2]; 4.0 hours after administration) was 500 ng Equivalents [^14C]-compound of Formula I/g tissue and the “Concentration, Lens” value ([2]; 4.0 hours after administration) was 9.69 ng Equivalents [^14C]-compound of Formula I/g tissue. The “Concentration, Optic Nerve” value ([2]; 4.0 hours after administration) was 0 ng Equivalents [^14C]-compound of Formula I/g tissue, the “Concentration, Retina and Choroid (with RPE)” value ([2]; 4.0 hours after administration) was 46.7 ng Equivalents [^14C]-compound of Formula I/g tissue and the “Concentration, Sclera” value ([2]; 4.0 hours after administration) was 387 ng Equivalents [^14C]-compound of Formula I/g tissue. For the same compound, the “Concentration, Vitreous Humor” value ([2]; 4.0 hours after administration) was 183 ng Equivalents [^14C]-compound of Formula I/g tissue, the “Concentration, Aqueous humor” value ([2]; 4.0 hours after administration) was 116 ng Equivalents [^14C]-compound of Formula I/g tissue and the “radioactivity concentration, eye” value [3, 4] was 18100 ng equivalents [^14C]-compound of Formula I/g. The “radioactivity concentration, liver” value [3, 4] was 272 ng equivalents [^14C]-compound of Formula I/g, the “radioactivity concentration, uveal tract” value [3, 4] was 9330 ng equivalents [^14C]-compound of Formula I/g and the “radioactivity concentration, esophageal contents” value ([3]; 0.5 hour postdose, topical ocular 1 mg/eye, male Sprague Dawley rats, above upper limit of quantification) was 399000 ng equivalents [^14C]-compound of Formula I/g. The “radioactivity concentration, nasal turbinates” value [3, 5] was 352000 ng equivalents [^14C]-compound of Formula I/g, the “radioactivity concentration, small intestinal contents” value [3, 5] was 349000 ng equivalents [^14C]-compound of Formula I/g and the “radioactivity level, eye lens” value ([3]; 2 hours postdose, topical ocular 1 mg/eye) was “BLQ”. The “radioactivity concentration, cecum contents” value [3, 6] was 57600 ng equivalents [^14C]-compound of Formula I/g, the “radioactivity concentration, large intestinal contents” value [3, 6] was 133000 ng equivalents [^14C]-compound of Formula I/g and the “radioactivity concentration, uveal tract” value ([3]; 12 hours postdose, topical ocular 1 mg/eye) was 610 ng equivalents [^14C]-compound of Formula I/g. The “radioactivity concentration, cecum contents” value [3, 7] was 5870 ng equivalents [^14C]-compound of Formula I/g, the “radioactivity concentration, large intestinal contents” value [3, 7] was 18000 ng equivalents [^14C]-compound of Formula I/g and the “excretion in feces, % of the administered radioactivity” value ([3]; IV administration 10 mg/kg) was roughly 95%. For the same compound, the “decline of radioactivity concentration, esophageal contents” value [3, 8] was roughly 100 fold, the “decline of radioactivity concentration, esophagus” value [3, 8] was “approximately 50 fold” and the “excretion in feces, % of the administered radioactivity” value ([3]; ocular administration 1 mg/eye) was “approximately 60%”. The “Urinary excretion, % of the administered radioactivity” value ([3]; ocular or IV administration) was “up to 2%” and the “metabolites in pooled plasma, urine and fecal homogenates” value ([3]; rats, up to 168 hrs following topical ocular or IV dose) was “no metabolites were isolated”.
